Legend:
Test in all cases: ActivX kinase probe assay (human PBMC)
Assay type in all cases: binding
[1] = tested on: MST4, YSK1
[2] = target: p38a (Homo sapiens (Human), UniProt Q16539); conditions: read-out: percent inhibition
[3] = target: ZAK (Homo sapiens (Human), UniProt Q9NYL2); conditions: read-out: percent inhibition
[4] = target: CHK2 (Homo sapiens (Human), UniProt O96017); conditions: read-out: percent inhibition
[5] = target: ACK (Homo sapiens (Human), UniProt Q07912); conditions: read-out: percent inhibition
[6] = target: smMLCK (Homo sapiens (Human), UniProt Q15746); conditions: read-out: percent inhibition
[7] = target: LKB1 (Homo sapiens (Human), UniProt Q15831); conditions: read-out: percent inhibition
Chain of LKB1 (Q15831 1-430): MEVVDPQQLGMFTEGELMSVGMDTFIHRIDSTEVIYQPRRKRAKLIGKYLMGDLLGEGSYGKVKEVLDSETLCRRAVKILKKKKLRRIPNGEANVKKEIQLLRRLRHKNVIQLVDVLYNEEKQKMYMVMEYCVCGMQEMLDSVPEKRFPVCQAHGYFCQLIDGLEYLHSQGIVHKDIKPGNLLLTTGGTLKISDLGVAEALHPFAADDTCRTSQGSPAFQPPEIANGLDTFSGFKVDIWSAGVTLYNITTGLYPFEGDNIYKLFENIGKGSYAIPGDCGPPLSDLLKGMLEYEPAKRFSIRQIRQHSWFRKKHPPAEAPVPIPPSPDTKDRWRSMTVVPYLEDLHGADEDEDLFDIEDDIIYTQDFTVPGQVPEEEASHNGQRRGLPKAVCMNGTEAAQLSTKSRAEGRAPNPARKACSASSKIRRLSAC
Chain of LKB1 (Q7RTN6 whole entry partner): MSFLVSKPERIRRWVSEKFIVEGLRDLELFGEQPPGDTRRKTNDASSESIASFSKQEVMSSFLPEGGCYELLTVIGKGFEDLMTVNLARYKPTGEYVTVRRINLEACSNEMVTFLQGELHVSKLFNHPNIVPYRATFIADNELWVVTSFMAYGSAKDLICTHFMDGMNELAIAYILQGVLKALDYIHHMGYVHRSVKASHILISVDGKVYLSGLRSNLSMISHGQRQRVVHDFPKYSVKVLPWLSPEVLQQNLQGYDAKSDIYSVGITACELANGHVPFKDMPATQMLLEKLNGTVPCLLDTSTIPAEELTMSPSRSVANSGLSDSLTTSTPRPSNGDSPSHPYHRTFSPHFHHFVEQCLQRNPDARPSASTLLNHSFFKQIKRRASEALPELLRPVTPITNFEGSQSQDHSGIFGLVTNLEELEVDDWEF
Chain of LKB1 (Q9Y376 whole entry partner): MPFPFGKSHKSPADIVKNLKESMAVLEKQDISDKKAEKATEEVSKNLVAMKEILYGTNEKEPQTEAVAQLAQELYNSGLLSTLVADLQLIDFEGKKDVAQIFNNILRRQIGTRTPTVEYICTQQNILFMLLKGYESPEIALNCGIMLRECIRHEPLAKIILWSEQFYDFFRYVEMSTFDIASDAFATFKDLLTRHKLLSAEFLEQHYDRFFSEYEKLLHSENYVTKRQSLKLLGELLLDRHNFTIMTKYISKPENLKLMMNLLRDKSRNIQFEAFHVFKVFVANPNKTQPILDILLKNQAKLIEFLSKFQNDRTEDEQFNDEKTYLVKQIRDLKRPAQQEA

[8] = tested on: KSR1, KSR2
[9] = target: MAP2K3 (Homo sapiens (Human), UniProt P46734); conditions: read-out: percent inhibition
Chain of MAP2K3 (P46734 whole entry): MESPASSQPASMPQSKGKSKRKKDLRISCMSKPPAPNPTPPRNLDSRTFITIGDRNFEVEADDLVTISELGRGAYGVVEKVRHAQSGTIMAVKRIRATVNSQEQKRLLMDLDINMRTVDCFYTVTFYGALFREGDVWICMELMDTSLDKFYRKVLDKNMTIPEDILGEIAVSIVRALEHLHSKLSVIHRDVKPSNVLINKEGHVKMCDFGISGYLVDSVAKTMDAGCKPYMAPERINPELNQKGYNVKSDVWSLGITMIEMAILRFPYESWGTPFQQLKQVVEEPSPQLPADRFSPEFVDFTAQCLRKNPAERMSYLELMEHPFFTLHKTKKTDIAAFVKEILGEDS

[10] = target: MAST3 (Homo sapiens (Human), UniProt O60307); conditions: read-out: percent inhibition
[11] = target: MSK1 domain1 (Homo sapiens (Human), UniProt O75582); conditions: read-out: percent inhibition
[12] = target: NEK1 (Homo sapiens (Human), UniProt Q96PY6); conditions: read-out: percent inhibition
[13] = target: TLK2 (Homo sapiens (Human), UniProt Q86UE8); conditions: read-out: percent inhibition
[14] = tested on: p70S6K, p70S6Kb
[15] = target: JAK2 domain2 (Homo sapiens (Human), UniProt O60674); conditions: read-out: percent inhibition
Chain of JAK2 domain2 (O60674 whole entry, the tested form may be a part): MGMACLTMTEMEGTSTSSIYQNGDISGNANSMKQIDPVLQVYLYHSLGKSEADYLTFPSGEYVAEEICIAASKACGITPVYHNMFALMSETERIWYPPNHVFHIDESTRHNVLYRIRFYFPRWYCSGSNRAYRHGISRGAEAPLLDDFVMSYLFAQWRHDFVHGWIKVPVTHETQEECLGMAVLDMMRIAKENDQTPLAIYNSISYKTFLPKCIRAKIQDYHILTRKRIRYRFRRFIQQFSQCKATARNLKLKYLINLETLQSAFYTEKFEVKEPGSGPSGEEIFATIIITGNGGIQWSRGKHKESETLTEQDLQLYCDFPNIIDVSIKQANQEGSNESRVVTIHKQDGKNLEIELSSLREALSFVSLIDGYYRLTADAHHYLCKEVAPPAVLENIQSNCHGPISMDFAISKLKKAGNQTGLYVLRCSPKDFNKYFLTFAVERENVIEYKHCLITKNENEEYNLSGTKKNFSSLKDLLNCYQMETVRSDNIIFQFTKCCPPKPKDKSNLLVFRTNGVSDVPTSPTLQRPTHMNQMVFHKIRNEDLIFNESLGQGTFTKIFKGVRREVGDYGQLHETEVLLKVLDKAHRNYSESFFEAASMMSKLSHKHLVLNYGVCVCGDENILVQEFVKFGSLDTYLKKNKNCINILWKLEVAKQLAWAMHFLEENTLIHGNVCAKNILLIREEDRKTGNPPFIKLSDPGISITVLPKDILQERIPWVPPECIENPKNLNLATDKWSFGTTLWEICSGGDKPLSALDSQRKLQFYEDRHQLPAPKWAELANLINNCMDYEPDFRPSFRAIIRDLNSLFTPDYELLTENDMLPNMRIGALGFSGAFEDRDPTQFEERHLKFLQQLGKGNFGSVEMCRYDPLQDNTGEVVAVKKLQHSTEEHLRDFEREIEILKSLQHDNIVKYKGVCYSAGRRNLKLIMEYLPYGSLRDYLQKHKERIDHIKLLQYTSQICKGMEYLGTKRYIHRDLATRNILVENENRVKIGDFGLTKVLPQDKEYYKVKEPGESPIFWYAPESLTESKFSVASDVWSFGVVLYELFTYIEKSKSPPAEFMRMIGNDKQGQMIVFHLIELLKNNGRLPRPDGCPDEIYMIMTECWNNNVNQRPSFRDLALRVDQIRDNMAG

[16] = target: IKKb (Homo sapiens (Human), UniProt O14920); conditions: read-out: percent inhibition
[17] = target: PIP5K3 (Homo sapiens (Human), UniProt Q9Y2I7); conditions: read-out: percent inhibition
[18] = target: EphA1 (Homo sapiens (Human), UniProt P21709); conditions: read-out: percent inhibition
Chain of EphA1 (P21709 26-976): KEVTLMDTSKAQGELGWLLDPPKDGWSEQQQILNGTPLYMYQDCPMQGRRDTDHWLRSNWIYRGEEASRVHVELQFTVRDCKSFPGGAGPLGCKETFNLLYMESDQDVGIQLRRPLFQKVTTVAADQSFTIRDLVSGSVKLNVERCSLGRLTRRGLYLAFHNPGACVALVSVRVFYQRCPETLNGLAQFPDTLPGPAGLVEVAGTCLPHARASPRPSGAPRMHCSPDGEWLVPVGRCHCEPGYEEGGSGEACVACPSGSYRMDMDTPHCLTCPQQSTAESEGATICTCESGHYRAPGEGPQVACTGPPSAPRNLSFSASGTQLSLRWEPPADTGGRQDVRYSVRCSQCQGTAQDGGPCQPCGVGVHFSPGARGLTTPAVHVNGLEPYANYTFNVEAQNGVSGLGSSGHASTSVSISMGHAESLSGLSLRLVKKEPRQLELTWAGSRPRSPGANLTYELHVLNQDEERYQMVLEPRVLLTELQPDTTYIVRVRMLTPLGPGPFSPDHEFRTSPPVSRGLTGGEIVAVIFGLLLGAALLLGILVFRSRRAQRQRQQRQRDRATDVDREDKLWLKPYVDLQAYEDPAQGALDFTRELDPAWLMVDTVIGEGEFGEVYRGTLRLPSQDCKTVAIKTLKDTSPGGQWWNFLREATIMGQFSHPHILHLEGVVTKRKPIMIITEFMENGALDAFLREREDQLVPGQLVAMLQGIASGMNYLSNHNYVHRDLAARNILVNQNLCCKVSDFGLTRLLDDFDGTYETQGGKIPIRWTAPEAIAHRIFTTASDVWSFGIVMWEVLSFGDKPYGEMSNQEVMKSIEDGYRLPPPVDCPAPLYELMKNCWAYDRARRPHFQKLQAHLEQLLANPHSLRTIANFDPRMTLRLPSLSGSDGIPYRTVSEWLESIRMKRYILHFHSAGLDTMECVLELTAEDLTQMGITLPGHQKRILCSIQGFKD

[19] = tested on: TAO1, TAO3
[20] = tested on: ABL, ARG
[21] = target: IRAK1 (Homo sapiens (Human), UniProt P51617); conditions: read-out: percent inhibition
[22] = target: p70S6K (Homo sapiens (Human), UniProt P23443); conditions: read-out: percent inhibition
[23] = target: IKKe (Homo sapiens (Human), UniProt Q14164); conditions: read-out: percent inhibition
[24] = tested on: IKKe, TBK1
[25] = target: CDK5 (Homo sapiens (Human), UniProt Q00535); conditions: read-out: percent inhibition
Chain of CDK5 (Q00535 whole entry): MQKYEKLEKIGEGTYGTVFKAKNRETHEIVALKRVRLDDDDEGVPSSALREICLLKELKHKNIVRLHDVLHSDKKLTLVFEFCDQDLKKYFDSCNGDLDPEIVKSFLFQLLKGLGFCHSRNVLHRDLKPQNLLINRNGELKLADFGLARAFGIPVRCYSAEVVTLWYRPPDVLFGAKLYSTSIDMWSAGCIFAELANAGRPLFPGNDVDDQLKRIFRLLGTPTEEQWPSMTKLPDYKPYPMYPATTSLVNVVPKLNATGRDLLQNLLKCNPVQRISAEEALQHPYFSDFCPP

[26] = target: FER (Homo sapiens (Human), UniProt P16591); conditions: read-out: percent inhibition
[27] = target: PKR (Homo sapiens (Human), UniProt P19525); conditions: read-out: percent inhibition
[28] = tested on: ZC1/HGK, ZC2/TNIK, ZC3/MINK
[29] = tested on: PITSLRE
[30] = target: MARK3 (Homo sapiens (Human), UniProt P27448); conditions: read-out: percent inhibition
[31] = target: KHS1 (Homo sapiens (Human), UniProt Q9Y4K4); conditions: read-out: percent inhibition
[32] = target: DGKA (Homo sapiens (Human), UniProt P23743); conditions: read-out: percent inhibition
Chain of DGKA (P23743 whole entry): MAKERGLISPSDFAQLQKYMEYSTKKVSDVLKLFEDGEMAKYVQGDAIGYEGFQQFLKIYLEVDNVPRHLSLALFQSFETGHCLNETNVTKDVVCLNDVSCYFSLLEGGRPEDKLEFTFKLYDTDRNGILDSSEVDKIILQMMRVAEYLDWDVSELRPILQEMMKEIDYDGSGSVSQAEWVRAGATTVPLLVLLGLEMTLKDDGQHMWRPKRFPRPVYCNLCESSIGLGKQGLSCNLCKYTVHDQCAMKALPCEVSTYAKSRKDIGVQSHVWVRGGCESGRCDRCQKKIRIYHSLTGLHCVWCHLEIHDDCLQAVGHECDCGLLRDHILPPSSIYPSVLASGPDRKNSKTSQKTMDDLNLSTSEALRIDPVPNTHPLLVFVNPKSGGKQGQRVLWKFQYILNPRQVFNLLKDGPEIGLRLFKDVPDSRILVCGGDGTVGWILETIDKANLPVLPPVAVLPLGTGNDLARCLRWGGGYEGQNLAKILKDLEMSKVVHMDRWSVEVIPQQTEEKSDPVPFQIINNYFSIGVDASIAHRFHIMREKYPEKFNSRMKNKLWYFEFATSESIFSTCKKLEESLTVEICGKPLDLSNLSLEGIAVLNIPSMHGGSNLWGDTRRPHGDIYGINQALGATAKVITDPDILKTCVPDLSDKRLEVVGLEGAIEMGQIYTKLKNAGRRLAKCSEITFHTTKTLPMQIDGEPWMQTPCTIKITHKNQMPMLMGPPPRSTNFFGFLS

[33] = target: HPK1 (Homo sapiens (Human), UniProt Q92918); conditions: read-out: percent inhibition
[34] = target: GPRK6 (Homo sapiens (Human), UniProt P43250); conditions: read-out: percent inhibition
[35] = tested on: NEK6, NEK7
[36] = target: MST3 (Homo sapiens (Human), UniProt Q9Y6E0); conditions: read-out: percent inhibition

Chain of p38a (Q16539 whole entry): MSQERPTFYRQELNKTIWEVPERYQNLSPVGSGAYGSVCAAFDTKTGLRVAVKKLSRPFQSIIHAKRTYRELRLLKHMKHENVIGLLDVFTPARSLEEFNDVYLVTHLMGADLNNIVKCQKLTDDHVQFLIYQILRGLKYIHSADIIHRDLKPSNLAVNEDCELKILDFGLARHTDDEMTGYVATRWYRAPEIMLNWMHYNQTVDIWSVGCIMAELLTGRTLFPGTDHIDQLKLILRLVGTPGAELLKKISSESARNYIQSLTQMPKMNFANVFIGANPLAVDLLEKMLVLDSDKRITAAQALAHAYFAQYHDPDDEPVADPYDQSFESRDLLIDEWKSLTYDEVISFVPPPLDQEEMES

## N#Cc1cccc(-c2c[nH]c3ncnc(N4CCOCC4)c23)c1 [Example 4, 3-[4-(Morpholin-4-yl)-7H-pyrrolo[2,3-d]pyrimidin-5-yl]benzonitrile]
[1]; 0.1 μM
  percent inhibition: 11.9%
[1]; 1 μM
  percent inhibition: 60.7%
[2]
  inhibition at 0.1 µM: -14.6%
  inhibition at 1 µM: -1.7%
[3]
  inhibition at 0.1 µM: -20.5%
  inhibition at 1 µM: -42.2%
[4]
  inhibition at 0.1 µM: -6.8%
  inhibition at 1 µM: 2.2%
[5]
  inhibition at 0.1 µM: 0.8%
  inhibition at 1 µM: 7.7%
[6]
  inhibition at 0.1 µM: -21.6%
  inhibition at 1 µM: 16.2%
[7]
  inhibition at 0.1 µM: 3.5%
  inhibition at 1 µM: 16.5%
[8]; 0.1 μM
  percent inhibition: −8.7%
[8]; 1 μM
  percent inhibition: 11.7%
[9]
  inhibition at 0.1 µM: -12.5%
  inhibition at 1 µM: 6.2%
[10]
  inhibition at 0.1 µM: 2.6%
  inhibition at 1 µM: 0.8%
[11]
  inhibition at 0.1 µM: 1%
  inhibition at 1 µM: -3.8%
[12]
  inhibition at 0.1 µM: -8.9%
  inhibition at 1 µM: -1.9%
[13]
  inhibition at 0.1 µM: -8.4%
  inhibition at 1 µM: -9.4%
[14]; 0.1 μM
  percent inhibition: −10.5%
[14]; 1 μM
  percent inhibition: −9.6%
[15]
  inhibition at 0.1 µM: 0.7%
  inhibition at 1 µM: 16.4%
[16]
  inhibition at 0.1 µM: -15.5%
  inhibition at 1 µM: -15.8%
[17]
  inhibition at 0.1 µM: -11.2%
  inhibition at 1 µM: 21.6%
[18]
  inhibition at 0.1 µM: -17%
  inhibition at 1 µM: -2.5%
[19]; 0.1 μM
  percent inhibition: −6.5%
[19]; 1 μM
  percent inhibition: 5.9%
[20]; 0.1 μM
  percent inhibition: −29.4%
[20]; 1 μM
  percent inhibition: −0.9%
[21]
  inhibition at 0.1 µM: -2.9%
  inhibition at 1 µM: 2.1%
[22]
  inhibition at 0.1 µM: -9%
  inhibition at 1 µM: 11.1%
[23]
  inhibition at 0.1 µM: -7%
  inhibition at 1 µM: 7.4%
[24]; 0.1 μM
  percent inhibition: −6.7%
[24]; 1 μM
  percent inhibition: 18.8%
[25]
  inhibition at 0.1 µM: -12.2%
  inhibition at 1 µM: 0.1%
[26]
  inhibition at 0.1 µM: -26.4%
  inhibition at 1 µM: 1.6%
[27]
  inhibition at 0.1 µM: -3.3%
  inhibition at 1 µM: 7.2%
[28]; 0.1 μM
  percent inhibition: −3.2%
[28]; 1 μM
  percent inhibition: 14.8%
[29]; 0.1 μM
  percent inhibition: −12.4%
[29]; 1 μM
  percent inhibition: 10.7%
[30]
  inhibition at 0.1 µM: -2.6%
  inhibition at 1 µM: 23.7%
[31]
  inhibition at 0.1 µM: -25.9%
  inhibition at 1 µM: 12.9%
[32]
  inhibition at 0.1 µM: -15.9%
  inhibition at 1 µM: -8.7%
[33]
  inhibition at 0.1 µM: -1.5%
  inhibition at 1 µM: 5.7%
[34]
  inhibition at 0.1 µM: -3.9%
  inhibition at 1 µM: 10.9%
[35]; 0.1 μM
  percent inhibition: −5.3%
[35]; 1 μM
  percent inhibition: −4.9%
[36]
  inhibition at 0.1 µM: 0.1%
  inhibition at 1 µM: 46.2%
